Measurements published in patent US8378104B2 (OSI Pharmaceuticals, LLC, priority 2010, dated 2013).

Tests used:
pJNK in HCT-116 cells = test: Phospho-JNK (Thr183/Tyr185) Meso Scale ELISA assay, TNFα-stimulated HCT-116 cells; format: cell-based; conditions: Homo sapiens, read-out: mean HCT-116 pJNK ELISA IC50 (Col. B)
Summary of the method: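 HCT-116 cells in 1% FCS medium were pretreated with compound for 4 hrs at 37° C, then stimulated with TNFα at 10 ng/mL final for 10 minutes. Lysates were taken in ice-cold lysis buffer with phosphatase and protease inhibitors, and phospho-JNK (Thr183/Tyr185) was measured by Meso Scale ELISA.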

TAK1-TAB1 fusion protein = molecular target: T1, TAK1-TAB1 fusion protein (Homo sapiens, UniProt O43318); test: TAK1 biochemical assay (AlphaScreen, GST-MAP2K7 substrate); conditions: TAK1-TAB1 fusion protein, GST-MAP2K7 substrate; read-out: mean TAK1 IC50 (Col. A)
T1 construct: purchased Carna
T1 sequence (O43318 with tags, fused parts or gaps limits assumed): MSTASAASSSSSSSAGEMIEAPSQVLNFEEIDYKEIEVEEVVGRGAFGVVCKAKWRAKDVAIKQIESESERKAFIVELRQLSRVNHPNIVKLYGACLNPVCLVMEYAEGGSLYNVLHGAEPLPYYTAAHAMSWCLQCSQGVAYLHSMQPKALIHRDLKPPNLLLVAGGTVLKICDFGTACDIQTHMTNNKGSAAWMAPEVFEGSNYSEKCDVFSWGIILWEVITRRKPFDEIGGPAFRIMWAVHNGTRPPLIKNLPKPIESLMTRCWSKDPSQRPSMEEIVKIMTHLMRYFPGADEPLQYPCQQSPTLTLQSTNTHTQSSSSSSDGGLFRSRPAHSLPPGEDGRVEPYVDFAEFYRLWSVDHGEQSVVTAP

p-p38 in HCT-116 cells = test: Phospho-p38 Meso Scale ELISA assay, TNFα-stimulated HCT-116 cells; format: cell-based; conditions: Homo sapiens, read-out: mean HCT-116 p-p38 ELISA IC50 (Col. C)
Procedure: Detailed below are ELISA assays for pJNK and p38, and a TAK1 biochemical assay. […] In Table 1, Col.
• 1. Plate HCT-116 cells at 25,000 per well in 100 uL in 96 well clear dishes in normal growth medium. Day 2: • 1. Aspirate medium and replace with 90 μl reduced serum growth medium (1% FCS), incubate for 2 hours at 37° C. • 2. Make drugs at 10× in reduced serum medium and add 10 uL per well. • 3. Incubate at 37° C. for 4 hrs. • 4. Bring capture plates to room temperature. • 5. Block with 150 μl Blocking Solution (provided with kit) (600 mg Blocker A into 20 mL 1× Wash Buffer per plate) at room temperature with shaking. • 6. Wash plates 4× with 200 μl 1× wash buffer (10× provided with kit) before transferring lysates. • 7. Dilute TNFα to […] in reduced serum medium (this makes a 10× working stock). • 8. Add 10 μl TNFα to all wells except negative control wells, final concentration is 10 ng/mL. • 9. Incubate at 37° C. for 10 minutes. • 10. Remove medium by flicking into sink • 11. Wash cells with 100 uL ice cold PBS. • 12. Remove PBS by flicking into sink and patting on paper towels. • 13. Lyse cells in 50 μl ice cold 1× Complete Lysis Buffer plus Phosphatase and Protease inhibitors (all provided with kit) (10 mL Tris Lysis Buffer+200 μl Protease inhibitor solution+100 μl Phosphatase inhibitor I+100 μl Phosphatase inhibitor II). • 14. Incubate with shaking at 4° C. for 30 minutes. • 15. Transfer 45 μl to capture plate, cover with adhesive cover, and incubate at 4° C. over night with shaking. • Day 3: • 1. Wash plates 4× with 200 μl 1× wash buffer (10× provided with kit). • 2. […] Incubate at room temperature with shaking for 1 hour. • 4. Wash 4× with 200 μl 1× Wash Buffer. • 5. […] Read on Sector Imager. Phospho-p38 Meso Scale ELISA Assay Day 1: • 1. Plate HCT-116 cells at 25,000 per well in 100 uL in 96 well clear dishes in normal growth medium. zday 2: • 1. Aspirate medium and replace with 90 μl reduced serum growth medium (1% FCS), incubate for 2 hours at 37° C. • 2. Make drugs at 10× in reduced serum medium and add 10 uL per well. • 3. Incubate at 37° C. for 4 hrs. • 4. Bring capture plates to room temperature. • 5. Block with 150 μl Blocking Solution (provided with kit) (600 mg Blocker A into 20 mL 1× Wash Buffer per plate) at room temperature with shaking. • 6. Wash plates 4× with 200 μl 1× wash buffer (10× provided with kit) before transferring lysates. • 7. Dilute TNFα to […] in reduced serum medium (this makes a 10× working stock). • 8. Add 10 μl TNFα to all wells except negative control wells, final concentration is 10 ng/mL. • 9. Incubate at 37° C. for 10 minutes. • 10. Remove medium by flicking into sink • 11. Wash cells with 100 uL ice cold PBS. • 12. Remove PBS by flicking into sink and patting on paper towels. • 13. Lyse cells in 50 μl ice cold 1× Complete Lysis Buffer plus phosphatase and protease inhibitors (all provided with kit) (10 mL Tris Lysis Buffer+200 μl Protease inhibitor solution+100 μl Phosphatase inhibitor I+100 μl Phosphatase inhibitor II). • 14. Incubate with shaking at 4° C. for 30 minutes. • 15. Dilute lysates before transferring to capture plate with 100 μl Complete p38 Lysate • Dilution Buffer (provided with kit) (10 mL of Diluent 20±200 μl Protease inhibitor solution+100 μl Phosphatase inhibitor I+100 μl Phosphatase inhibitor II). • 16. Transfer 50 μl of diluted lysates to capture plate, cover with adhesive cover, and incubate at 4° C. over night with shaking. Day 3: • 1. Wash plates 4× with 200 μl 1× wash buffer (10× provided with kit). • 2. […] Incubate at room temperature with shaking for 1 hour. • 4. Wash 4× with 200 μl 1× Wash Buffer. • 5. […] Read on Sector Imager. TAK1 Biochemical Assay

| SMILES | IC50 (pJNK in HCT-116 cells) | IC50 (TAK1-TAB1 fusion protein) | IC50 (p-p38 in HCT-116 cells) |
| --- | --- | --- | --- |
| CC(=O)N1CCC(n2cc(-c3cnc(N)c4oc(-c5ccc6c(c5)CNC6=O)cc34)cn2)CC1 [Example 98, 5-{4-[1-(1-acetylpiperidin-4-yl)-1H-pyrazol-4-yl]-7-aminofuro[2,3-c]pyridin-2-yl}-2,3-dihydro-1H-isoindol-1-one] | > 10000 nM | > 10000 nM | > 10000 nM |
| CC(=O)N1CCC(n2cc(-c3cnc(N)c4oc(-c5cccc(S(C)(=O)=O)c5)cc34)cn2)CC1 [Example 101, 1-[4-(4-{7-amino-2-[3-(methylsulfonyl)phenyl]furo[2,3-c]pyridin-4-yl}-1H-pyrazol-1-yl)piperidin-1-yl]ethanone] | 1000 to 10000 nM | 1000 to 10000 nM | 1000 to 10000 nM |
| CC(=O)N1CCC(n2cc(-c3cnc(N)c4oc(-c5cccc6ccccc56)cc34)cn2)CC1 [Example 105, 1-(4-{4-[7-amino-2-(naphthalen-1-yl)furo[2,3-c]pyridin-4-yl]-1H-pyrazol-1-yl}piperidin-1-yl)ethanone] | 1000 to 10000 nM | 100 to 1000 nM | 1000 to 10000 nM |
| CC(=O)N1CCC(n2cc(-c3cnc(N)c4oc(-c5ccc6sccc6c5)cc34)cn2)CC1 [Example 106, 1-(4-{4-[7-amino-2-(1-benzothiophen-5-yl)furo[2,3-c]pyridin-4-yl]-1H-pyrazol-1-yl}piperidin-1-yl)ethanone] | 100 to 1000 nM | 100 to 1000 nM | 100 to 1000 nM |
| CC(=O)N1CCC(n2cc(-c3cnc(N)c4oc(-c5ccc6scnc6c5)cc34)cn2)CC1 [Example 107, 1-(4-{4-[7-amino-2-(1,3-benzothiazol-5-yl)furo[2,3-c]pyridin-4-yl]-1H-pyrazol-1-yl}piperidin-1-yl)ethanone] | 100 to 1000 nM | 100 to 1000 nM | 100 to 1000 nM |
| CC(=O)N1CCC(n2cc(-c3cnc(N)c4oc(-c5ccc6c(c5)CCO6)cc34)cn2)CC1 [Example 108, 1-(4-{4-[7-amino-2-(2,3-dihydro-1-benzofuran-5-yl)furo[2,3-c]pyridin-4-yl]-1H-pyrazol-1-yl}piperidin-1-yl)ethanone] | 100 to 1000 nM | 100 to 1000 nM | < 100 nM |
| CC(=O)N1CCC(n2cc(-c3cnc(N)c4oc(-c5scc6c5OCCO6)cc34)cn2)CC1 [Example 109, 1-(4-{4-[7-amino-2-(2,3-dihydrothieno[3,4-b][1,4]dioxin-5-yl)furo[2,3-c]pyridin-4-yl]-1H-pyrazol-1-yl}piperidin-1-yl)ethanone] | 100 to 1000 nM | 100 to 1000 nM | 1000 to 10000 nM |
| CC(=O)N1CCC(n2cc(-c3cnc(N)c4oc(-c5ccc6ncn(C)c6c5)cc34)cn2)CC1 [Example 111, 1-(4-{4-[7-amino-2-(1-methyl-1H-benzimidazol-6-yl)furo[2,3-c]pyridin-4-yl]-1H-pyrazol-1-yl}piperidin-1-yl)ethanone] | 1000 to 10000 nM | 100 to 1000 nM | > 10000 nM |
| CC(=O)N1CCC(n2cc(-c3cnc(N)c4oc(-c5cccc([N+](=O)[O-])c5)cc34)cn2)CC1 [Example 112, 1-(4-{4-[7-amino-2-(3-nitrophenyl)furo[2,3-c]pyridin-4-yl]-1H-pyrazol-1-yl}piperidin-1-yl)ethanone] | 100 to 1000 nM | < 100 nM | 100 to 1000 nM |
| CSc1ccc(-c2cc3c(-c4cnn(C5CCN(C(C)=O)CC5)c4)cnc(N)c3o2)cc1 [Example 113, 1-[4-(4-{7-amino-2-[4-(methylsulfanyl)phenyl]furo[2,3-c]pyridin-4-yl}-1H-pyrazol-1-yl)piperidin-1-yl]ethanone] | 1000 to 10000 nM | > 10000 nM | 1000 to 10000 nM |
| CC(=O)N1CCC(n2cc(-c3cnc(N)c4oc(-c5ccc6occc6c5)cc34)cn2)CC1 [Example 114, 1-(4-{4-[7-amino-2-(1-benzofuran-5-yl)furo[2,3-c]pyridin-4-yl]-1H-pyrazol-1-yl)piperidin-1-yl]ethanone] | 100 to 1000 nM | 1000 to 10000 nM | 100 to 1000 nM |
| CC(=O)N1CCC(n2cc(-c3cnc(N)c4oc(-c5cn[nH]c5)cc34)cn2)CC1 [Example 115, 1-(4-{4-[7-amino-2-(1H-pyrazol-4-yl)furo[2,3-c]pyridin-4-yl]-1H-pyrazol-1-yl}piperidin-1-yl)ethanone] | 1000 to 10000 nM | 100 to 1000 nM | > 10000 nM |
| CC(=O)N1CCC(n2cc(-c3cnc(N)c4oc(-c5ccc6c(c5)OCO6)cc34)cn2)CC1 [Example 117, 1-(4-{4-[7-amino-2-(1,3-benzodioxol-5-yl)furo[2,3-c]pyridin-4-yl]-1H-pyrazol-1-yl}piperidin-1-yl)ethanone] | 1000 to 10000 nM | 1000 to 10000 nM | 1000 to 10000 nM |
| CC(=O)N1CCC(n2cc(-c3cnc(N)c4oc(-c5ccc(O)cc5)cc34)cn2)CC1 [Example 120, 1-(4-{4-[7-amino-2-(4-hydroxyphenyl)furo[2,3-c]pyridin-4-yl]-1H-pyrazol-1-yl}piperidin-1-yl)ethanone] | 100 to 1000 nM | 100 to 1000 nM | 100 to 1000 nM |
| CC(=O)N1CCC(n2cc(-c3cnc(N)c4oc(-c5ccc(O)c(F)c5)cc34)cn2)CC1 [Example 123, 1-(4-{4-[7-amino-2-(3-fluoro-4-hydroxyphenyl)furo[2,3-c]pyridin-4-yl]-1H-pyrazol-1-yl}piperidin-1-yl)ethanone] | 1000 to 10000 nM | 100 to 1000 nM | 1000 to 10000 nM |
| CC(=O)c1cccc(-c2cc3c(-c4cnn(C5CCN(C(C)=O)CC5)c4)cnc(N)c3o2)c1 [Example 124, 1-(4-{4-[2-(3-acetylphenyl)-7-aminofuro[2,3-c]pyridin-4-yl]-1H-pyrazol-1-yl}piperidin-1-yl)ethanone] | 100 to 1000 nM | 1000 to 10000 nM | 1000 to 10000 nM |
| CC(=O)N1CCC(n2cc(-c3cnc(N)c4oc(-c5ccc(S(C)(=O)=O)cc5)cc34)cn2)CC1 [Example 129, 1-[4-(4-{7-amino-2-[4-(methylsulfonyl)phenyl]furo[2,3-c]pyridin-4-yl}-1H-pyrazol-1-yl)piperidin-1-yl]ethanone] | > 10000 nM | > 10000 nM | > 10000 nM |
| COc1cc(-c2cc3c(-c4cnn(C5CCN(C(C)=O)CC5)c4)cnc(N)c3o2)ccc1O [Example 131, 1-(4-{4-[7-amino-2-(4-hydroxy-3-methoxyphenyl)furo[2,3-c]pyridin-4-yl]-1H-pyrazol-1-yl}piperidin-1-yl)ethanone] | 100 to 1000 nM | 100 to 1000 nM | 1000 to 10000 nM |
